The source of these data is article PMC2606922 (Molecular pharmacology, 2008).

Assay [1] deals with adult mouse receptors with two δ-subunits (lacking the ε-subunit) (Mus musculus, UniProt P02716+P04756). The experiment in a line: outside-out patch clamp, relative peak current. The format is biochemical. Conditions: 300 μM ACh, -50 mV, 22-25°C, pH 7.3. (In patch-clamp work, channel activity is measured electrically.)
Assay [2] concerns the target adult mouse muscle nAChR, (α1)2β1εδ (Mus musculus, UniProt P02716+P04756+P20782). The experiment in a line: outside-out patch clamp, relative peak current. Conditions: 300 μM ACh, -50 mV, 22-25°C, pH 7.3. The format is biochemical.

Sequence of adult mouse receptors with two δ-subunits (lacking the ε-subunit) (P04756 21-457): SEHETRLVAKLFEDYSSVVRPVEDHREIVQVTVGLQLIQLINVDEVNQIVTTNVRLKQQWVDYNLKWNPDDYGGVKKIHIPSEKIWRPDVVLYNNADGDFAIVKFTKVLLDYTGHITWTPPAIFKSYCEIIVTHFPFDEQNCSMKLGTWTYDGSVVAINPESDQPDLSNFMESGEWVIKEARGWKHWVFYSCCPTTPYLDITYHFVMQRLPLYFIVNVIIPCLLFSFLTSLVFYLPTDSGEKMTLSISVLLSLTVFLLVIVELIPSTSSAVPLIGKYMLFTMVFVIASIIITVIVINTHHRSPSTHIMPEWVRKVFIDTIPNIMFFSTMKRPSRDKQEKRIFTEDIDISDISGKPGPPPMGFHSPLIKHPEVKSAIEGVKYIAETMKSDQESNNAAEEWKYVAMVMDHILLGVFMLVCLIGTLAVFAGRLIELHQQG
Sequence of adult mouse receptors with two δ-subunits (lacking the ε-subunit) (P02716 25-520): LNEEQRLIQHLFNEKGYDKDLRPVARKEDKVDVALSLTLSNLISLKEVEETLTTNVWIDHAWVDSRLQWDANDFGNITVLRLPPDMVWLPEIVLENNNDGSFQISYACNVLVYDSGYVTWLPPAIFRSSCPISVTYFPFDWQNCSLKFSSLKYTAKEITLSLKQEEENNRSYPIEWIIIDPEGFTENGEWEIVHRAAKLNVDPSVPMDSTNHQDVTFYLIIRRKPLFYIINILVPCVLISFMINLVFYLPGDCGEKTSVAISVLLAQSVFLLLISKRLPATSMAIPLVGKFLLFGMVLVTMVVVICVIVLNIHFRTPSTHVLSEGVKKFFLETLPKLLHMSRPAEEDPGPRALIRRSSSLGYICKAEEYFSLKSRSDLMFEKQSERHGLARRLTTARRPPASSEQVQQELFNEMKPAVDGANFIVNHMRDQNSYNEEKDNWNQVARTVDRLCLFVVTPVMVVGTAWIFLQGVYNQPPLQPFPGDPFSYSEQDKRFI
Sequence of adult mouse receptors with two δ-subunits (lacking the ε-subunit) (P09690 24-501 partner): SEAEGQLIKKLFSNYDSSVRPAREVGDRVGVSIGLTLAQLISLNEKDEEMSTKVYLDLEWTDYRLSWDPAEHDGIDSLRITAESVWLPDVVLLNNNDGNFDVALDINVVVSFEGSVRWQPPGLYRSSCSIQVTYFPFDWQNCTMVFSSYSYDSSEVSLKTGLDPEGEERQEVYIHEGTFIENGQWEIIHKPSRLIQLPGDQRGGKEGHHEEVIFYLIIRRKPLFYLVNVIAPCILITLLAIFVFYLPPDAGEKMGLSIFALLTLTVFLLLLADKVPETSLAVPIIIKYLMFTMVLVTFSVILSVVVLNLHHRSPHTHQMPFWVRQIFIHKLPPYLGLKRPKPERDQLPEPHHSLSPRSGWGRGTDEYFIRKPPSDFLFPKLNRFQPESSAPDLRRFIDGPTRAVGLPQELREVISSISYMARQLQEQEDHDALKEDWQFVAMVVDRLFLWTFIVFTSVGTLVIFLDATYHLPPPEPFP
Sequence of adult mouse muscle nAChR, (α1)2β1εδ (P04756 21-457): as the sequence (P04756 21-457) above
Sequence of adult mouse muscle nAChR, (α1)2β1εδ (P20782 21-493): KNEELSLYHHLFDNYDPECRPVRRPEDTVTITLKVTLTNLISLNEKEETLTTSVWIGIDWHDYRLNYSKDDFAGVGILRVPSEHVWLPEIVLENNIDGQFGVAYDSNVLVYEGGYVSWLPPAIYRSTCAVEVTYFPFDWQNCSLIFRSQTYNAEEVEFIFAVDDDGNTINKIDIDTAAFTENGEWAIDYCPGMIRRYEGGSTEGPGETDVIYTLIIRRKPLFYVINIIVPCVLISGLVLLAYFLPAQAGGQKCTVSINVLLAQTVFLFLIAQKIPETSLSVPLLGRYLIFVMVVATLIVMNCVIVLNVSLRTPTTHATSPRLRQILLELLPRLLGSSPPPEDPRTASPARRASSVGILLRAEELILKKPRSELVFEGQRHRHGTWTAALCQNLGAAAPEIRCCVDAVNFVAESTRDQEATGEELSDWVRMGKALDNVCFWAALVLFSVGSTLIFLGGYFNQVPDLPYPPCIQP
Sequence of adult mouse muscle nAChR, (α1)2β1εδ (P02716 25-520): as the sequence (P02716 25-520) above
Sequence of adult mouse muscle nAChR, (α1)2β1εδ (P09690 24-501 partner): as the sequence (P09690 24-501 partner) above

As for `C=CC[N+]1([C@H]2C[C@H]3[C@@H]4CC[C@H]5C[C@H](O)[C@@H](N6CCOCC6)C[C@]5(C)[C@H]4CC[C@]3(C)[C@H]2OC(C)=O)CCCC1` [rocuronium], the figures for the “current relative to control at 40 nM” value in assay [1] and in assay [2] were 0.16 ± 0.01 and 0.32 ± 0.05, respectively.
